Tests used:
[1] = system: SW480; experiment: Antiproliferative activity against human SW480 cells assessed as inhibition of cell viability at 10 uM after 48 hrs by MTT assay relative to control; assay type: functional
[2] = system: MDA-MB-231; experiment: Antiproliferative activity against human MDA-MB-231 cells assessed as inhibition of cell viability at 10 uM after 48 hrs by MTT assay relative to control; assay type: functional
[3] = system: L3.6pl; experiment: Antiproliferative activity against human L3.6 cells assessed as inhibition of cell viability at 10 uM after 48 hrs by MTT assay relative to control; assay type: functional
[4] = system: HCT-116; experiment: Antiproliferative activity against human HCT116 cells assessed as inhibition of cell viability at 10 uM after 48 hrs by MTT assay relative to control; assay type: functional
[5] = system: SW480; experiment: Antiproliferative activity against human SW480 cells assessed as inhibition of cell viability after 48 hrs by MTT assay; assay type: functional, cell-based; details: SW480, 48 h
[6] = Lipophilicity, log P of the compound; assay type: physicochemical; details: octanol/water
[7] = system: HCT-116; experiment: Antiproliferative activity against human HCT-116 cells assessed as inhibition of cell viability after 48 hrs by MTT assay; assay type: functional, cell-based; details: HCT-116, 48 h
[8] = system: MDA-MB-231; experiment: Antiproliferative activity against human MDA-MB-231 cells assessed as inhibition of cell viability after 48 hrs by MTT assay; assay type: functional, cell-based; details: MDA-MB-231, 48 h

| IC50 [5] [µM] | logP [6] | IC50 [7] [µM] | IC50 [8] [µM] | SMILES | inhibition at 10 µM [1] [%] | inhibition at 10 µM [2] [%] | inhibition at 10 µM [3] [%] | inhibition at 10 µM [4] [%] |
| --- | --- | --- | --- | --- | --- | --- | --- | --- |
| – | – | – | – | COc1cc(NC(=O)c2ccc(Cl)c(S(=O)(=O)NC(=O)c3ccc(Cl)nc3)c2)cc(OC)c1OC | 8.11 | 5.01 | -15.7 | -9.17 |
| – | – | – | – | COc1cc(CNC(=O)c2ccc(Cl)c(S(N)(=O)=O)c2)cc(OC)c1OC | 27.4 | 44.4 | 38.2 | 34.3 |
| – | – | – | – | C=CC(=O)NS(=O)(=O)c1cc(C(=O)Nc2cc(OC)c(OC)c(OC)c2)ccc1Cl | 28.9 | 2.82 | -12.9 | 24.2 |
| – | – | – | – | COc1ccccc1NC(=O)c1cccc(S(N)(=O)=O)c1 | 18.2 | 27.1 | 9.7 | 40.3 |
| – | – | – | – | COc1ccc(CNC(=O)c2ccc(Cl)c(S(N)(=O)=O)c2)cc1 | 16.2 | 54 | 29 | 43.1 |
| – | – | – | – | COc1cc(NC(=O)c2ccc(Cl)c(S(N)(=O)=O)c2)cc(OC)c1 | 27.2 | 31.8 | 26.3 | 42.5 |
| – | – | – | – | NS(=O)(=O)c1cccc(C(=O)Nc2cccc(C(F)(F)F)c2)c1 | 34.4 | 27.2 | 9.27 | 39.7 |
| – | – | – | – | COc1cc(NC(=O)c2ccc(Cl)c(S(=O)(=O)NC(=O)C=C(C)C)c2)cc(OC)c1OC | 22.6 | 22.3 | -7.12 | 20.1 |
| – | – | – | – | COc1cc(NC(=O)c2ccc(Cl)c(S(N)(=O)=O)c2)c(C(=O)O)cc1OC | 30.2 | 66.7 | 11.8 | 47.2 |
| > 20 | 2.97 | 9.62 | > 20 | NS(=O)(=O)c1cc(C(=O)NCc2cccc(Cl)c2Cl)ccc1Cl | 19.6 | 51.5 | 11.6 | 70.4 |
| – | – | – | – | NS(=O)(=O)c1cccc(C(=O)Nc2cccnc2)c1 | 28.3 | 42.9 | 32.7 | 8.11 |
| – | – | – | – | NS(=O)(=O)c1cccc(C(=O)Nc2ccc(C(F)(F)F)cc2)c1 | 38.1 | 26.4 | 18.1 | 19.1 |
| – | – | – | – | CCC(=O)NS(=O)(=O)c1cc(C(=O)Nc2cc(OC)c(OC)c(OC)c2)ccc1Cl | 21.3 | 19.6 | 1.47 | 27.2 |
| – | – | – | – | NS(=O)(=O)c1cc(C(=O)Nc2cccc(C(F)(F)F)c2)ccc1Cl | 42.9 | 29 | 22.3 | 41.4 |
| > 20 | 2.76 | 10.8 | 7.32 | NS(=O)(=O)c1cc(C(=O)Nc2ccc(C(F)(F)F)cc2)ccc1Cl | 47.4 | 27.3 | 29.6 | 55.4 |
| > 20 | 0.37 | > 20 | 17.9 | COc1cc(NC(=O)c2cccc(S(N)(=O)=O)c2)c(C(=O)O)cc1OC | 22.9 | 52.1 | 23.3 | 22.1 |
| – | – | – | – | NS(=O)(=O)c1cc(C(=O)Nc2ccc(F)c(Cl)c2)ccc1Cl | 49.1 | 41.5 | 30.2 | 47.5 |
| – | – | – | – | NS(=O)(=O)c1cccc(C(=O)Nc2ccccc2C(F)(F)F)c1 | 24.8 | 42.8 | 21.9 | 40.3 |
| – | – | – | – | COc1cc(OC)cc(C(=O)NS(=O)(=O)c2cc(C(=O)Nc3cc(OC)c(OC)c(OC)c3)ccc2Cl)c1 | 16.1 | 4.11 | -13.1 | -2.37 |
| > 20 | 0.96 | 11.2 | 13.6 | COc1cccc(NC(=O)c2cccc(S(N)(=O)=O)c2)c1 | 28.3 | 57.6 | 15.2 | 51.4 |
| – | – | – | – | NS(=O)(=O)c1cccc(C(=O)Nc2ccc([N+](=O)[O-])cc2Cl)c1 | 44.1 | 43.2 | 21.3 | 15.1 |
| – | – | – | – | COc1ccc(OC)c(NC(=O)c2ccc(Cl)c(S(N)(=O)=O)c2)c1 | 23.2 | 26.7 | 24.2 | 28.2 |
| – | – | – | – | COc1cccc(NC(=O)c2ccc(Cl)c(S(N)(=O)=O)c2)c1 | 29.3 | 42.4 | 22.3 | 43 |

| IC50 [5] [µM] | logP [6] | IC50 [7] [µM] | IC50 [8] [µM] | SMILES | inhibition at 10 µM [1] [%] | inhibition at 10 µM [2] [%] | inhibition at 10 µM [3] [%] | inhibition at 10 µM [4] [%] |
| --- | --- | --- | --- | --- | --- | --- | --- | --- |
| – | – | – | – | COc1ccccc1NC(=O)c1ccc(Cl)c(S(N)(=O)=O)c1 | 49.3 | 19.8 | 22.9 | 37.3 |
| – | – | – | – | NS(=O)(=O)c1cc(C(=O)Nc2ccc(N3CCOCC3)cc2)ccc1Cl | 21.9 | 43.3 | 12.2 | 39.3 |
| – | 1.54 | 9.82 | 0.7 | CC(C)(C)OC(=O)c1ccc(NC(=O)c2cccc(S(N)(=O)=O)c2)cc1 | 55.4 | 91.1 | 31.2 | 79.3 |
| – | – | – | – | NS(=O)(=O)c1cc(C(=O)Nc2c(F)c(F)c(F)c(F)c2F)ccc1Cl | 27.1 | 33.1 | 12.6 | 34 |
| – | – | – | – | NS(=O)(=O)c1cc(C(=O)Nc2ccccc2C(F)(F)F)ccc1Cl | 30.7 | 44.9 | 21.2 | 45.4 |
| – | – | – | – | COc1ccc(NC(=O)c2ccc(Cl)c(S(N)(=O)=O)c2)cc1 | 31.9 | 30.9 | 22.8 | 20.2 |
| – | – | – | – | NS(=O)(=O)c1ccc(O)c(C(=O)Nc2ccc([N+](=O)[O-])cc2Cl)c1 | -8.3 | 48.2 | 44.7 | 64 |
| – | – | – | – | COc1ccccc1C(=O)NS(=O)(=O)c1cc(C(=O)Nc2cc(OC)c(OC)c(OC)c2)ccc1Cl | 33.9 | 13.1 | -18.3 | 16.2 |
| – | – | – | – | COc1ccc(NC(=O)c2cccc(S(N)(=O)=O)c2)cc1 | 38.4 | 32.3 | 23.9 | 42.7 |
| – | – | – | – | NS(=O)(=O)c1cc(C(=O)Nc2ccc(Cl)c(F)c2)ccc1Cl | 48.1 | 43.7 | 26.4 | 44.1 |
| – | – | – | – | COc1cc(NC(=O)c2ccc(Cl)c(S(=O)(=O)NC(C)=O)c2)cc(OC)c1OC | 19.5 | 19.4 | -15.2 | 27.2 |
| – | – | – | – | COc1cc(NC(=O)c2ccc(Cl)c(S(=O)(=O)NC(=O)c3cccc([N+](=O)[O-])c3)c2)cc(OC)c1OC | 12.1 | 14.3 | -6.13 | 3.74 |
| – | – | – | – | C=C(C)C(=O)NS(=O)(=O)c1cc(C(=O)Nc2cc(OC)c(OC)c(OC)c2)ccc1Cl | 22.3 | 4.84 | -11.3 | 30 |
| – | – | – | – | COc1cc(NC(=O)c2ccc(Cl)c(S(=O)(=O)NC(=O)c3ccccc3)c2)cc(OC)c1OC | 29.5 | 2.05 | -27.8 | 32.3 |
| – | – | – | – | COc1ccc(OC)c(NC(=O)c2cccc(S(N)(=O)=O)c2)c1 | 31.9 | 37 | 20.5 | 46.4 |
| – | – | – | – | COc1cc(NC(=O)c2ccc(Cl)c(S(N)(=O)=O)c2)cc(OC)c1OC | 82.2 | 93.3 | 42.1 | 87.9 |
| – | – | – | – | COc1ccc(C(=O)NS(=O)(=O)c2cc(C(=O)Nc3cc(OC)c(OC)c(OC)c3)ccc2Cl)cc1 | 20.1 | 13.1 | 18.3 | 4.8 |
| – | – | – | – | CN1CCN(c2ccc(NC(=O)c3ccc(Cl)c(S(N)(=O)=O)c3)cc2)CC1 | 38.3 | 37.3 | 14.6 | 40.5 |
| – | – | – | – | C/C=C/C(=O)NS(=O)(=O)c1cc(C(=O)Nc2cc(OC)c(OC)c(OC)c2)ccc1Cl | 24.6 | 18.4 | 11.7 | 29.3 |
| – | – | – | – | COc1cc(NC(=O)c2ccc(Cl)c(S(=O)(=O)NC(=O)c3c(OC)cccc3OC)c2)cc(OC)c1OC | 30.6 | 18.1 | 4.06 | 10.2 |
| – | – | – | – | COc1cc(NC(=O)c2cccc(S(N)(=O)=O)c2)cc(OC)c1 | 40.4 | 39.6 | 22.2 | 47.1 |
| – | – | – | – | COc1cccc(C(=O)NS(=O)(=O)c2cc(C(=O)Nc3cc(OC)c(OC)c(OC)c3)ccc2Cl)c1 | 22 | 23.5 | -0.51 | 21.3 |
| – | – | – | – | NC(N)=NS(=O)(=O)c1ccc(NC(=O)c2ccc(Cl)c(S(N)(=O)=O)c2)cc1 | 27.3 | 46.4 | 11.1 | 41.3 |

— ChEMBL document CHEMBL4811240, “Discovery of N-substituted sulfamoylbenzamide derivatives as novel inhibitors of STAT3 signaling pathway based on Niclosamide” (Eur J Med Chem, 2021)
